Our source for the EC50 values is patent US20250145594A1, “MODULATORS OF THE INTEGRATED STRESS PATHWAY” (Calico Life Sciences LLC, priority 2020, published 2025).

pEC50: −log10 of the molar value.

For orientation: pEC50 means the EC50 on a negative log10 scale, so that one unit is a factor of ten.

The experiment relates to ATF4 luciferase reporter in HEK293T cells. The experiment in a line: ATF4-Luc assay (in vitro model of VWMD). The class given is cell-based, human. The following applies: Homo sapiens, HEK-293T, 7 h, HEK293T cells carrying the ATF4 luciferase reporter, 1 μg/mL tunicamycin, One Glo luminescence. The method in brief: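 Tunicamycin (1 μg/mL) stress with co-added compound for 7 hours in HEK293T cells stably carrying an ATF4 5′-UTR–luciferase reporter. EC50 values come from the luminescent signal (One Glo).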
Background: Reporter assays use an easily measured gene product as a stand-in for the process of interest.
Turning to `O=C(CO[C@H]1C[C@@H](OC(F)(F)F)C1)NC12CC(NC(=O)[C@H]3C[C@@H](O)c4cc(Cl)c(F)cc4O3)(C1)C2` [Compound 461, (2R,4R)-6-chloro-7-fluoro-4-hydroxy-N-[3-(2-{[(1s,3S)-3-(trifluoromethoxy)cyclobutyl]oxy}acetamido)bicyclo[1.1.1]pentan-1-yl]-3,4-dihydro-2H-1-benzopyran-2-carboxamide], the pEC50 was above 8.00.

Take `COc1ccc2nn(C34CC(NC(=O)[C@H]5C[C@@H](O)c6cc(Cl)ccc6O5)(C3)C4)cc2n1` [Compound 462, (2R,4R)-6-chloro-4-hydroxy-N-[3-(5-methoxy-2H-pyrazolo[4,3-b]pyridin-2-yl)bicyclo[1.1.1]pentan-1-yl]-3,4-dihydro-2H-1-benzopyran-2-carboxamide]: the pEC50 is above 8.00.

For `O=C(NC12CC(n3cc(CCCCOC(F)(F)F)nn3)(C1)C2)[C@H]1C[C@@H](O)c2cc(Cl)ccc2O1` [Compound 465, (2R,4R)-6-chloro-4-hydroxy-N-(3-{4-[4-(trifluoromethoxy)butyl]-1H-1,2,3-triazol-1-yl}bicyclo[1.1.1]pentan-1-yl)-3,4-dihydro-2H-1-benzopyran-2-carboxamide], the pEC50 was above 8.00.

Consider `O=C(NC12CC(n3cc(CCCCOC(F)(F)F)nn3)(C1)C2)[C@H]1C[C@@H](O)c2cc(Cl)c(F)cc2O1` [Compound 466, (2R,4R)-6-chloro-7-fluoro-4-hydroxy-N-(3-{4-[4-(trifluoromethoxy)butyl]-1H-1,2,3-triazol-1-yl}bicyclo[1.1.1]pentan-1-yl)-3,4-dihydro-2H-1-benzopyran-2-carboxamide], for which the pEC50 was above 8.00.

Take `O=C(NC12CC(n3cc(COCCOC(F)(F)F)nn3)(C1)C2)[C@H]1C[C@@H](O)c2cc(Cl)c(F)cc2O1` [Compound 467, (2R,4R)-6-chloro-7-fluoro-4-hydroxy-N-[3-(4-{[2-(trifluoromethoxy)ethoxy]methyl}-1H-1,2,3-triazol-1-yl)bicyclo[1.1.1]pentan-1-yl]-3,4-dihydro-2H-1-benzopyran-2-carboxamide]: the negative-log EC50 (pEC50) was above 8.00.

As to `O=C(NC12CC(c3nnc(OCCOC(F)(F)F)o3)(C1)C2)[C@H]1C[C@@H](O)c2cc(Cl)ccc2O1` [Compound 468, (2R,4R)-6-chloro-4-hydroxy-N-(3-{5-[2-(trifluoromethoxy)ethoxy]-1,3,4-oxadiazol-2-yl}bicyclo[1.1.1]pentan-1-yl)-3,4-dihydro-2H-1-benzopyran-2-carboxamide], the pEC50 was above 8.00.

For the compound `O=C(NC12CC(c3ccnc(OCCOC(F)(F)F)n3)(C1)C2)[C@H]1C[C@@H](O)c2cc(Cl)c(F)cc2O1` [Compound 469, (2R,4R)-6-chloro-7-fluoro-4-hydroxy-N-(3-{2-[2-(trifluoromethoxy)ethoxy]pyrimidin-4-yl)bicyclo[1.1.1]pentan-1-yl}-3,4-dihydro-2H-1-benzopyran-2-carboxamide], the negative-log EC50 (pEC50) is above 8.00.

With `O=C(NC12CC(n3cc(C4CC(OC(F)(F)F)C4)nn3)(C1)C2)[C@H]1C[C@@H](O)c2cc(C(F)(F)F)ccc2O1` (stereo partly drawn) [Compound 470, (2R,4R)-4-hydroxy-N-(3-{4-[(1s,3S)-3-(trifluoromethoxy)cyclobutyl]-1H-1,2,3-triazol-1-yl}bicyclo[1.1.1]pentan-1-yl)-6-(trifluoromethyl)-3,4-dihydro-2H-1-benzopyran-2-carboxamide], the pEC50 was above 8.00.

As to `O=C(NC12CC(n3cnc(C4CC(OC(F)(F)F)C4)c3)(C1)C2)[C@H]1C[C@@H](O)c2cc(C(F)(F)F)ccc2O1` (stereo partly drawn) [Compound 471, (2R,4R)-4-hydroxy-N-(3-{4-[(1s,3S)-3-(trifluoromethoxy)cyclobutyl]-1H-imidazol-1-yl}bicyclo[1.1.1]pentan-1-yl)-6-(trifluoromethyl)-3,4-dihydro-2H-1-benzopyran-2-carboxamide], the pEC50 is above 8.00.

With `O=C(NC12CC(n3cnc([C@H]4C[C@@H](OC(F)(F)F)C4)c3)(C1)C2)[C@H]1C[C@@H](O)c2cc(Cl)c(F)cc2O1` [Compound 472, (2R,4R)-6-chloro-7-fluoro-4-hydroxy-N-(3-{4-[(1s,3S)-3-(trifluoromethoxy)cyclobutyl]-1H-imidazol-1-yl}bicyclo[1.1.1]pentan-1-yl)-3,4-dihydro-2H-1-benzopyran-2-carboxamide], the pEC50 is above 8.00.

As to `O=C(NC12CC(n3cc([C@H]4C[C@@H](OC(F)(F)F)C4)nn3)(C1)C2)[C@H]1C[C@@H](O)c2cc(Cl)c(F)cc2O1` [Compound 473, (2R,4R)-6-chloro-7-fluoro-4-hydroxy-N-(3-{4-[(1s,3S)-3-(trifluoromethoxy)cyclobutyl]-1H-1,2,3-triazol-1-yl}bicyclo[1.1.1]pentan-1-yl)-3,4-dihydro-2H-1-benzopyran-2-carboxamide], the pEC50 is above 8.00.

Turning to `O=C(NC12CC(n3cc(-c4ccc(OC(F)(F)F)cn4)cn3)(C1)C2)[C@@H]1C[C@@H](O)c2cc(Cl)c(F)cc2O1` [Compound 474, (2S,4R)-6-chloro-7-fluoro-4-hydroxy-N-(3-{4-[5-(trifluoromethoxy)pyridin-2-yl]-1H-pyrazol-1-yl}bicyclo[1.1.1]pentan-1-yl)-3,4-dihydro-2H-1-benzopyran-2-carboxamide], the pEC50 is above 8.00.

`O=C(NC12CC(n3cc(-c4ccc(OC(F)(F)F)cn4)cn3)(C1)C2)[C@H]1C[C@H](O)c2cc(Cl)c(F)cc2O1` [Compound 476, (2R,4S)-6-chloro-7-fluoro-4-hydroxy-N-(3-{4-[5-(trifluoromethoxy)pyridin-2-yl]-1H-pyrazol-1-yl}bicyclo[1.1.1]pentan-1-yl)-3,4-dihydro-2H-1-benzopyran-2-carboxamide]: the pEC50 was above 8.00.

Take `O=C(NC12CC(n3cc(-c4ccc(C(F)(F)F)cn4)cn3)(C1)C2)[C@@H]1C[C@@H](O)c2cc(Cl)c(F)cc2O1` [Compound 477, (2S,4R)-6-chloro-7-fluoro-4-hydroxy-N-(3-{4-[5-(trifluoromethyl)pyridin-2-yl]-1H-pyrazol-1-yl}bicyclo[1.1.1]pentan-1-yl)-3,4-dihydro-2H-1-benzopyran-2-carboxamide]: the pEC50 was above 8.00.

Consider `O=C(NC12CC(n3cc(-c4ccc(C(F)(F)F)cn4)cn3)(C1)C2)[C@H]1C[C@H](O)c2cc(Cl)c(F)cc2O1` [Compound 478, (2R,4S)-6-chloro-7-fluoro-4-hydroxy-N-(3-{4-[5-(trifluoromethyl)pyridin-2-yl]-1H-pyrazol-1-yl}bicyclo[1.1.1]pentan-1-yl)-3,4-dihydro-2H-1-benzopyran-2-carboxamide], for which the pEC50 is above 8.00.

For the compound `O=C(NC12CC(n3cc(-c4cnn(C(F)(F)F)c4)cn3)(C1)C2)[C@H]1C[C@@H](O)c2cc(Cl)c(F)cc2O1` [Compound 479, (2R,4R)-6-chloro-7-fluoro-4-hydroxy-N-{3-[1′-(trifluoromethyl)-1H,1′H-[4,4′-bipyrazol]-1-yl]bicyclo[1.1.1]pentan-1-yl}-3,4-dihydro-2H-1-benzopyran-2-carboxamide], the pEC50 is above 8.00.

As to `O=C(NC12CC(c3ccc(-n4cnc(C(F)(F)F)c4)nc3)(C1)C2)[C@H]1C[C@@H](O)c2cc(Cl)c(F)cc2O1` [Compound 480, (2R,4R)-6-chloro-7-fluoro-4-hydroxy-N-(3-{6-[4-(trifluoromethyl)-1H-imidazol-1-yl]pyridin-3-yl}bicyclo[1.1.1]pentan-1-yl)-3,4-dihydro-2H-1-benzopyran-2-carboxamide], the pEC50 is above 8.00.
